The source of these data is ChEMBL document CHEMBL1157898 (Bioorg Med Chem Lett, 2010).

Data set [1] has as its target Mitogen-activated protein kinase 14 (Homo sapiens) (UniProt Q16539). The experiment in a line: Inhibition of P38alpha.
The target in data set [2] is T1, Protein kinase C zeta type (Homo sapiens) (UniProt Q05513).
T1 sequence (whole entry): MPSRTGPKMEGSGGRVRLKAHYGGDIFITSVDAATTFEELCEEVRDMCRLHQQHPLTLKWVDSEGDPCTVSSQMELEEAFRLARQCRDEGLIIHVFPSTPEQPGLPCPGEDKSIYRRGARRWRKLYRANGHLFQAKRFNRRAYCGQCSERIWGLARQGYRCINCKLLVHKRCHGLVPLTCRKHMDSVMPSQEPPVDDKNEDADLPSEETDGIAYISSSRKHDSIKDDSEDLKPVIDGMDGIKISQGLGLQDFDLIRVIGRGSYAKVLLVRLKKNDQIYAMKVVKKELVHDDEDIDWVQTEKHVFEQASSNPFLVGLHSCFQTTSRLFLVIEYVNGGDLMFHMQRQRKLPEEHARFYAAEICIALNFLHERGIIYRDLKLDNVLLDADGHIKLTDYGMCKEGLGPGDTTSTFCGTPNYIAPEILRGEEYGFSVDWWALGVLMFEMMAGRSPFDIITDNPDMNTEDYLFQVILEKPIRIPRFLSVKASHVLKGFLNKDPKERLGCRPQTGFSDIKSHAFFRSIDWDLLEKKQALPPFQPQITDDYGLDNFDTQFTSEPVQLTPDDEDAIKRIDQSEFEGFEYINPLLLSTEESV
The experiment in a line: Inhibition of PKCzeta.

In data set [3] the target is Gamma-secretase (Homo sapiens) (UniProt Q96BI3+Q9NZ42+Q8WW43+P49768+Q92542+P49810). The experiment in a line: Inhibition of gamma secretase mediated amyloid beta 38 generation in human H4 cells at 10 uM by LPECL assay; values are per cent of control.
In data set [4] the target is Insulin-like growth factor 1 receptor (Homo sapiens) (UniProt P08069). As to the kind of experiment: Inhibition of IGF1R.
Insulin-like growth factor 1 receptor (Homo sapiens), sequence (P08069 31-736 limits assumed): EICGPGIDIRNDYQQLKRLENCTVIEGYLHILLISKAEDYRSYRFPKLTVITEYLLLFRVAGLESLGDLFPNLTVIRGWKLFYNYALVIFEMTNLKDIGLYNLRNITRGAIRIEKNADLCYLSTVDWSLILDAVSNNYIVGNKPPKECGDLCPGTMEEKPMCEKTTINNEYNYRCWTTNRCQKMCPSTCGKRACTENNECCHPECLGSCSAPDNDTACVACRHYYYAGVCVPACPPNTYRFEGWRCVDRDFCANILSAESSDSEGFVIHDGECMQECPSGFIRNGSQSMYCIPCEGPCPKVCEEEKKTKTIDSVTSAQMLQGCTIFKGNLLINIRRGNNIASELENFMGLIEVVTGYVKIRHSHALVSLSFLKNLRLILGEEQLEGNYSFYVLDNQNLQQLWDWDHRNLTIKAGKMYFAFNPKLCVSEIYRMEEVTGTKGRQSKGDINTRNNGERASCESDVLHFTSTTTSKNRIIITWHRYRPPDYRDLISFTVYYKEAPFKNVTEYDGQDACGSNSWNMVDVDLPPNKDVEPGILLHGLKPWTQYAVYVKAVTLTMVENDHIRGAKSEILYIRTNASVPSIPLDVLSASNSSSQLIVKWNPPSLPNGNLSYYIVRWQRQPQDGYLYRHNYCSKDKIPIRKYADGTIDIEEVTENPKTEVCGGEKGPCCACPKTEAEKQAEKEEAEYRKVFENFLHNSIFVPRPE
Insulin-like growth factor 1 receptor (Homo sapiens), sequence (P08069 741-1367 limits assumed): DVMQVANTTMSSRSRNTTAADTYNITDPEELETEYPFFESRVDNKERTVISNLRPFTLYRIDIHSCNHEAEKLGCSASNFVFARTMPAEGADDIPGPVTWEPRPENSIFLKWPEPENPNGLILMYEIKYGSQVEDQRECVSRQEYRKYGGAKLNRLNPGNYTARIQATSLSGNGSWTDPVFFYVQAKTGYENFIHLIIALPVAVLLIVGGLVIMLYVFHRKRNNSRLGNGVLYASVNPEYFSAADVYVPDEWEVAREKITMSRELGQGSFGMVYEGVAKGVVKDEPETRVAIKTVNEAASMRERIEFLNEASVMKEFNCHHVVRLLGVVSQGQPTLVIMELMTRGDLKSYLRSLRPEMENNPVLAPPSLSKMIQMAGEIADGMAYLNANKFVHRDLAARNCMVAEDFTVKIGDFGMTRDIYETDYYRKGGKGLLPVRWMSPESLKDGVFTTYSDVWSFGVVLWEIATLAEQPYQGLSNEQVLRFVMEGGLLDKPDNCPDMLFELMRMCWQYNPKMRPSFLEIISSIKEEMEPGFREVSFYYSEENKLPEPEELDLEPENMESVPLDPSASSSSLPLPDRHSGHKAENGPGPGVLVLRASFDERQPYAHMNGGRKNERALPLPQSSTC
Data set [5] has as its target Glycogen synthase kinase-3 beta (Homo sapiens) (UniProt P49841). The experiment in a line: Inhibition of GSK3-beta.
Data set [6] can be described thus: Inhibition of PKA.
Data set [7] addresses T2, Serine/threonine-protein kinase D2 (Homo sapiens) (UniProt Q9BZL6).
T2 sequence (whole entry): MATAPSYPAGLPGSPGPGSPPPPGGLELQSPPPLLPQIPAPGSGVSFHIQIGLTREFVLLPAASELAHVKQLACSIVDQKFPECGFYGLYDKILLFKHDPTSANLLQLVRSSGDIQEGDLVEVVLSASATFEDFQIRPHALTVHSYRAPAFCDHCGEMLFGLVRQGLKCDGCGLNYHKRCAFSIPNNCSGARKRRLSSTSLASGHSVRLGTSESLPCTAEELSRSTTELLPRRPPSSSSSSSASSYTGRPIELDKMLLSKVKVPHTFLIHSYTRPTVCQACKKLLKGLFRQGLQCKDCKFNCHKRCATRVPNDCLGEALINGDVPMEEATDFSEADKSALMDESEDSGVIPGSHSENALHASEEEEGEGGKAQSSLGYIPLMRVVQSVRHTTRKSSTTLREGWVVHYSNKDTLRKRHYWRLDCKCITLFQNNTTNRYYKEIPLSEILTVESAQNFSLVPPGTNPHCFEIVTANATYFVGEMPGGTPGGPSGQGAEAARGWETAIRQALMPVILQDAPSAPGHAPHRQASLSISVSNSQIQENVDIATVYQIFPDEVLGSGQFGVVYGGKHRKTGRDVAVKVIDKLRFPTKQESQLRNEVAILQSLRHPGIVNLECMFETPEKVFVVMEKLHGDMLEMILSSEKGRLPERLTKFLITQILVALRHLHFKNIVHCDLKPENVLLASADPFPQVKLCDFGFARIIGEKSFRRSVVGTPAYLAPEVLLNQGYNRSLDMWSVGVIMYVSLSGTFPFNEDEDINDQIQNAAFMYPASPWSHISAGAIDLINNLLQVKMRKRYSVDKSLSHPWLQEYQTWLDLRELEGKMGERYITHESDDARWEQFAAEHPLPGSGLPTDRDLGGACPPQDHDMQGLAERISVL
The experiment in a line: Inhibition of PKD2.

For data set [8], the target named is MAP kinase-activated protein kinase 2 (Homo sapiens) (UniProt P49137). The experiment in a line: Inhibition of MAPKAPK2.
MAP kinase-activated protein kinase 2 (Homo sapiens), sequence (P49137 whole entry, looked up): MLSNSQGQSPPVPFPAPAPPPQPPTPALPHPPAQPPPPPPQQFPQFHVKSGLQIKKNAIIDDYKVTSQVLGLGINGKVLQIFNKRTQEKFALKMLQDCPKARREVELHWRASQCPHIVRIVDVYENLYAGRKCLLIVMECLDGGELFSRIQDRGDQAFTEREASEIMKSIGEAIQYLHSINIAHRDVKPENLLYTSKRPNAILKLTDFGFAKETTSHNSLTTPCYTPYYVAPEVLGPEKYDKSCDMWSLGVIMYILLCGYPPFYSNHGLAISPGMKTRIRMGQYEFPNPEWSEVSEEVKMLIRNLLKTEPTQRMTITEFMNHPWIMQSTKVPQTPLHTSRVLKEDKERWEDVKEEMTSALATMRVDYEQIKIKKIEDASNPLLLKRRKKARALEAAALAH
A further data set concerns H4. The experiment in a line: Toxicity in human H4 cells at 10 uM. Format: cell-based. Particulars: h4, 10 µM.
The target in data set [9] is RAF proto-oncogene serine/threonine-protein kinase (Homo sapiens) (UniProt P04049). The experiment in a line: Inhibition of C-Raf.
RAF proto-oncogene serine/threonine-protein kinase (Homo sapiens), sequence (P04049 whole entry): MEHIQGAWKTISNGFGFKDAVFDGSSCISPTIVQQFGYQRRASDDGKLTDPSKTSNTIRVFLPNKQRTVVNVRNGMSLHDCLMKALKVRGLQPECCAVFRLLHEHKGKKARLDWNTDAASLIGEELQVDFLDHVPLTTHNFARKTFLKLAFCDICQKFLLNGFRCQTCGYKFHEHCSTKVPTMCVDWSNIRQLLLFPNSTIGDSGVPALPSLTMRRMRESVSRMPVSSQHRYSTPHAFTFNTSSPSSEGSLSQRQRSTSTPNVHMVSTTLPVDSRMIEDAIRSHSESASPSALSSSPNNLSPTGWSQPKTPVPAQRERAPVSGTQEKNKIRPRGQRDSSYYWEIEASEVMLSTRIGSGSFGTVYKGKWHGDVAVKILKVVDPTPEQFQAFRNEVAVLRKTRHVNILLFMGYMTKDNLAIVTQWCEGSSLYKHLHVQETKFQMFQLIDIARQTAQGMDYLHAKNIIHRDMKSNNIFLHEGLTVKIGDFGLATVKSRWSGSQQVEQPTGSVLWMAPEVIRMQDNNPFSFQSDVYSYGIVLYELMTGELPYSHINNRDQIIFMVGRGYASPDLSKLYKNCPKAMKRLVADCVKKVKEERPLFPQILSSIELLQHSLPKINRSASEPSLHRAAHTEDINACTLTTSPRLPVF
Data set [10] concerns the target T3, Serine/threonine-protein kinase Chk1 (Homo sapiens) (UniProt O14757).
T3 sequence (whole entry): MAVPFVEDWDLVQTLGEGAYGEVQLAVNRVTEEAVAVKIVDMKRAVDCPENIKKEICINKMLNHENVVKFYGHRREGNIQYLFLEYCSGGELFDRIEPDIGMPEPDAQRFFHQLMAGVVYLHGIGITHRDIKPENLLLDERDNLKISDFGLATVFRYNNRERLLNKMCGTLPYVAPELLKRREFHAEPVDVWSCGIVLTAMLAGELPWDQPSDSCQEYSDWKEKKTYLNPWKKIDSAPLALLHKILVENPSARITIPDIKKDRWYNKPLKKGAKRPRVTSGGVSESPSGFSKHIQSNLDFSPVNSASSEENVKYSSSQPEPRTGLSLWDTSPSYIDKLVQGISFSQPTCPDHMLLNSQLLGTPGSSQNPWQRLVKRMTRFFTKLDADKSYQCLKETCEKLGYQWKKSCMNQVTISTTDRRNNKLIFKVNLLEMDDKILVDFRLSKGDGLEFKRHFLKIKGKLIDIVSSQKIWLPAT
As to the kind of experiment: Inhibition of CHK1.

Data set [11] addresses T4, Aurora kinase A (Homo sapiens) (UniProt O14965).
T4 sequence (whole entry): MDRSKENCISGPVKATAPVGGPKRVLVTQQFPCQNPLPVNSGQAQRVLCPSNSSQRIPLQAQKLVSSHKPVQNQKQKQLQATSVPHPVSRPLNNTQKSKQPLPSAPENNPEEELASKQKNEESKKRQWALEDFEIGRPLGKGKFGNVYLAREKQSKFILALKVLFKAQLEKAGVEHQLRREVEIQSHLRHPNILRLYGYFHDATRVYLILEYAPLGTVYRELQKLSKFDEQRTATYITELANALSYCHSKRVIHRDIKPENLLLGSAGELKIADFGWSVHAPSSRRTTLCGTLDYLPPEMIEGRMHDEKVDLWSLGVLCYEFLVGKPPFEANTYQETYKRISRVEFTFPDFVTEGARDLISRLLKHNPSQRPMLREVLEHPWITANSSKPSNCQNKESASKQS
The experiment in a line: Inhibition of Aurora A.

Data set [12] addresses MAP/microtubule affinity-regulating kinase 3 (Homo sapiens) (UniProt P27448). The experiment in a line: Inhibition of C-TAK1.
Data set [13] deals with Serine/threonine-protein kinase Chk2 (Homo sapiens) (UniProt O96017). The experiment in a line: Inhibition of CHK2.
For data set [14], the target named is Mitogen-activated protein kinase 1 (Homo sapiens) (UniProt P28482). The experiment in a line: Inhibition of ERK2.
Mitogen-activated protein kinase 1 (Homo sapiens), sequence (P28482 whole entry): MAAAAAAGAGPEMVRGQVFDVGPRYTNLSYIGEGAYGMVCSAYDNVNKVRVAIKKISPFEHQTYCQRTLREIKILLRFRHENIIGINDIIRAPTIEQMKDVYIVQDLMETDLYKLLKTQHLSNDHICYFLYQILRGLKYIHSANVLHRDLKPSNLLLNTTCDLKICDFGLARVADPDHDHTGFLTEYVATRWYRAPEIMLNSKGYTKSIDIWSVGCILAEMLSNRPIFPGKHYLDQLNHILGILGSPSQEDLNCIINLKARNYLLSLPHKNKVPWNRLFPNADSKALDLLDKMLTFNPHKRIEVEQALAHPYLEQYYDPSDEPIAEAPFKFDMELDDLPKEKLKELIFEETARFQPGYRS
Data set [15] concerns the target Mitogen-activated protein kinase 3 (Homo sapiens) (UniProt P27361). The experiment in a line: Inhibition of ERK1.

Structures are written as SMILES. Calls of active or inactive are those of the source. The rule behind the calls is not given here. Bounds are passed on as bounds.

Mitogen-activated protein kinase 14 (Homo sapiens), sequence (Q16539 whole entry): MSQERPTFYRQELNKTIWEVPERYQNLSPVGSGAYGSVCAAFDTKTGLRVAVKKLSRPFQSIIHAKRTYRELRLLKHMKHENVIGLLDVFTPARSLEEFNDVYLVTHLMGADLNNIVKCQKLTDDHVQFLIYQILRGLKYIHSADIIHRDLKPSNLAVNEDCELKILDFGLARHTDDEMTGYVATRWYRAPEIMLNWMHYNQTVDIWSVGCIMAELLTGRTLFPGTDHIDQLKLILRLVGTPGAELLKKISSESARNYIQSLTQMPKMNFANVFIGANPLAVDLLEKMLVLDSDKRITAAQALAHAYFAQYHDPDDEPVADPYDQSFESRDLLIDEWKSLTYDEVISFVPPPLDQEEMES
Glycogen synthase kinase-3 beta (Homo sapiens), sequence (P49841 whole entry, looked up): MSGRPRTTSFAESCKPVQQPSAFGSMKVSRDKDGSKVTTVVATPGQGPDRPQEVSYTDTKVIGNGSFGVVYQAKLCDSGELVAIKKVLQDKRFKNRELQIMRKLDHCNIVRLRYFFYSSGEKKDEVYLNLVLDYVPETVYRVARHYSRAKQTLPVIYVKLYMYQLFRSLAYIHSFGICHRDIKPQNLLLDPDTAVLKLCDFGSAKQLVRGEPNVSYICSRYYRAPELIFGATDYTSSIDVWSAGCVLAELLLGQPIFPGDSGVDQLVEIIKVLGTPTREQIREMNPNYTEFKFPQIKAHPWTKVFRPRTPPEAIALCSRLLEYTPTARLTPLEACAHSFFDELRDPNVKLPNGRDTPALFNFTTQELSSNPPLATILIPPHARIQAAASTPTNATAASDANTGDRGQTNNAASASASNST
Mitogen-activated protein kinase 3 (Homo sapiens), sequence (P27361 whole entry): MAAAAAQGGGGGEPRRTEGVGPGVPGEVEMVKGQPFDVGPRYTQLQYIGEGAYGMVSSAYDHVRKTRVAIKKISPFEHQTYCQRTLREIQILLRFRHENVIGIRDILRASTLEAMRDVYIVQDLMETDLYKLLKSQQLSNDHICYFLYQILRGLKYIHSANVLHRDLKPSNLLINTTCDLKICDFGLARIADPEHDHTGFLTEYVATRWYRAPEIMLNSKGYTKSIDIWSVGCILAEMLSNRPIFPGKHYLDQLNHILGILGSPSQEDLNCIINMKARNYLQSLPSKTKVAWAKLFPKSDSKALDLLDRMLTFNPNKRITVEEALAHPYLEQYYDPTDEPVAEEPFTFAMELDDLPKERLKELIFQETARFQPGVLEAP
MAP/microtubule affinity-regulating kinase 3 (Homo sapiens), sequence (P27448 whole entry, looked up): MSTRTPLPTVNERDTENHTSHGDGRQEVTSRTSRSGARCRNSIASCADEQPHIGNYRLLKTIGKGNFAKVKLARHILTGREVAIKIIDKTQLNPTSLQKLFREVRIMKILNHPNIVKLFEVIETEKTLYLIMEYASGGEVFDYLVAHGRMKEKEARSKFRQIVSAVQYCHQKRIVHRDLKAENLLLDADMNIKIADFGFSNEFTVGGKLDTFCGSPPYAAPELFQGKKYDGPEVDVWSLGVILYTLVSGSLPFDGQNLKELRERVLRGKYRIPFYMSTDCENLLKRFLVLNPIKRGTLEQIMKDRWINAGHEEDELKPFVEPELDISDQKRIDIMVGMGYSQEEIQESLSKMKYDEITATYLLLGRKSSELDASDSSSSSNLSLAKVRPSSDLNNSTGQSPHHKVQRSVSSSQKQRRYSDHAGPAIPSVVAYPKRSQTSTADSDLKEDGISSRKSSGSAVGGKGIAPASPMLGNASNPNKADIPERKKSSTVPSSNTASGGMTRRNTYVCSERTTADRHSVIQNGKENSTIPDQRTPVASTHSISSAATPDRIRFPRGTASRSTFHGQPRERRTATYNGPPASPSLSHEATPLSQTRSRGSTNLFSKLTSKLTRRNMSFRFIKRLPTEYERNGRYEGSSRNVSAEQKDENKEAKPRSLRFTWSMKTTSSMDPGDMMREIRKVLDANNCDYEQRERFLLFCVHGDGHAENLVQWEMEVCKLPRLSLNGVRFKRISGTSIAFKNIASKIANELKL

In the case of `O=C1Nc2ccc(Cl)cc2/C1=C\c1ccccc1[N+](=O)[O-]`, the inhibition result in data set [1], in data set [2], in data set [4], in data set [5], in data set [6] and in data set [7] was “inactive” each time. In [8], the inhibition entry was “inactive”. For the same compound, in [3], the residual activity was determined as 94%.

For the compound `O=C1Nc2ccc(Cl)cc2/C1=C\c1ccc2c(c1)OCO2`, the inhibition result in data set [1], in data set [2], in data set [4], in [5], in [6] and in data set [7] was “inactive” throughout. For the same compound, in data set [8], the inhibition entry is “inactive”. Also, the residual activity in data set [3] was 86%.

With `O=C1Nc2ccc(Cl)cc2/C1=C\c1ccccc1F`, the inhibition entry in data set [1], in [2], in [4], in data set [5], in [6] and in data set [7] was “inactive” throughout. Moreover, the inhibition entry in [8] was “inactive”. Besides, the residual activity in data set [3] is 87%.

As to `NC(=O)Cc1ccc(/C=C2/C(=O)Nc3ccc(Cl)cc32)cc1`, the inhibition result in data set [1], in data set [2], in [4], in data set [5], in [6] and in [7] was “inactive” in each case. Further, in data set [8], the inhibition result is “inactive”. For the same compound, in data set [3], the residual activity turned out to be 99%.

Turning to `CCN(CC)CCNC(=O)c1c(C)[nH]c(/C=C2\C(=O)Nc3ccc(F)cc32)c1C` [SUNITINIB], the inhibition entry in data set [1], in [2], in data set [4], in [5], in data set [6] and in [7] was “inactive” each time. In [8], the inhibition entry is “inactive”. This compound registered an Activity in the data set with H4 of 40 µM. Besides, in [3], the residual activity amounted to 26%.

`COc1cc(/C=C2/C(=O)Nc3ccc(Cl)cc32)cc(OC)c1OC`: the inhibition entry in [1], in data set [2], in [4], in data set [5], in [6] and in [7] was “inactive” throughout. In data set [8], the inhibition result was “inactive”. Also, the Activity in the data set on H4 came to 80 µM. Besides, in data set [3], the residual activity was determined as 54%.

As for `COc1cc(OC)c(C=C2C(=O)Nc3ccccc32)c(OC)c1`, the inhibition entry in [1], in data set [9], in data set [2], in data set [10], in data set [11] and in data set [12] was “inactive” throughout. Besides, the inhibition result in data set [13], in data set [4], in [5], in data set [14], in data set [15] and in [6] was “inactive” in each case. The inhibition entry in data set [7] and in data set [8] was “inactive” each time. Further, the residual activity in data set [3] turned out to be 55%.

Regarding `COc1cc(OC)c(/C=C2/C(=O)Nc3ccc(Cl)cc32)c(OC)c1`, the inhibition in data set [1] (concentration not given here), in data set [9] (concentration not given here), in data set [2] (concentration not given here), in data set [10] (concentration not given here), in [11] (concentration not given here) and in [12] (concentration not given here) was < 20% in each case. Moreover, the inhibition in data set [13] (concentration not given here), in [4] (concentration not given here), in data set [5] (concentration not given here), in data set [14] (concentration not given here), in data set [15] (concentration not given here) and in data set [6] (concentration not given here) was < 20% in each case. Also, the inhibition in [7] (concentration not given here) and in [8] (concentration not given here) was < 20% in each case. This compound gave an Activity in the data set with H4 of 20 µM. In addition, in [3], the residual activity worked out at 35%.

As for `O=C1Nc2ccc(Cl)cc2/C1=C\c1cc(F)cc(F)c1`, the inhibition result in data set [1], in data set [2], in [4], in data set [5], in [6] and in data set [7] was “inactive” each time. The inhibition result in [8] was “inactive”.

With `O=C1Nc2ccc(Cl)cc2/C1=C\c1ccccc1S(=O)(=O)O`, the inhibition result in data set [1], in data set [2], in data set [4], in [5], in data set [6] and in data set [7] was “inactive” throughout. For the same compound, the inhibition result in data set [8] was “inactive”. Also, the residual activity in data set [3] amounted to 101%.
